These results are taken from patent publication US8618063B2, “Method for treating a synucleinopathy” (The Board of Trustees of the University of Illinois, priority 2008, dated 2013).

Assay [1] relates to DIC phosphorylation. The assay can be described thus: Labeling studies with MPP+ treated cortical neurons. The format is cell-based. Particulars: MPP+ treated cortical neurons. The protocol: One mCi ^32P phosphate (ICN) was added per dish and incubated for 4 hours. Medium was discarded, cells homogenized in 1 ml of ROLB buffer and processed accordingly to standard methods (Morfini, et al. (2004) supra). Axoplasms were prepared as for video microscopy, but 1 mCi of γ-^32P-ATP was added. After 50 minutes incubation, axoplasms were homogenized in ROLB buffer. A 10 μl aliquot of lysate was precipitated with 15% TCA and radioactivity incorporated into protein determined by scintillation counting. Aliquots of equal counts were used for kinesin immunoprecipitation with 10 μg of 74.1 antibody and Protein G-agarose beads (Pierce). Immunoprecipitates were separated by SDS-PAGE, dried and exposed in a PHOSPHORIMAGER cassette, then scanned and quantified on a TYPHOON (Amersham/Molecular Dynamics).
(§1) MPTP/MPP+ is the best characterized example of toxin-induced Parkinson's disease. The effects of MPP+ on fast axonal transport were examined in axoplasm as was dynein phosphorylation in cells. […] Based on reports that MPP+ could activate caspase3 (Turmel, et al. (2001) Mov. Disord. 16:185-9) and that caspase3 can activate a PKC by proteolytic cleavage (Kaul, et al. (2003) Eur. J. Neurosci. 18:1387-401), the ability of a caspase3 inhibitor to block effects of MPP+ on fast axonal transport was evaluated. […] Further, perfusion with Caspase 3 affected retrograde transport in a manner similar to PKC and MPP+ (retrograde transport=1.462±0.016 μm/sec).

Assay [2] deals with Src/Fyn effects on fast axonal transport. The assay can be described thus: Isolated axoplasm: blocking of Src/Fyn effects on fast axonal transport. The format is cell-based, squid Loligo pealeii. How it is done:
(§2) Axoplasm was extruded from giant axons of the squid Loligo pealeii (Marine Biological Laboratory) according to established methods (Brady, et al. (1985) Cell Motil. 5(2):81-101). Axons were 400-600 μm in diameter and provided ≈5 μl of axoplasm per axon. Wild-type α-synuclein or α-synuclein with point mutations associated with familial Parkinson's disease (Ala30Pro or Ala53Thr), MPP+, enzymes or inhibitors were diluted into X/2 buffer (175 mM potassium aspartate, 65 mM taurine, 35 mM betaine, 25 mM glycine, 10 mM HEPES, 6.5 mM MgCl2, 5 mM EGTA, 1.5 mM CaCl2, 0.5 mM glucose, pH 7.2) supplemented with 2-5 mM ATP and 20 μl of this mix was added to perfusion chambers (Brady, et al. (1985) supra). Preparations were analyzed on a ZEISS AXIOMAT with a 100×, 1.3 na objective, and DIC optics. Hamamatsu Argus 20 and Model 2400 CCD camera were used for image processing and analysis. Organelle velocities were measured with a Photonics Microscopy C2117 video manipulator (Hamamatsu).
Screening of nonreceptor tyrosine kinases included Src- and Abl-family members. […] Given that neither kinesin nor dynein are known to have tyrosine phosphorylations, the ability of a broad spectrum PKC inhibitor Gö6976 was included in the assay to block the action of Fyn. Gö6976 inhibition of PKC abolished actions of Src/Fyn on fast axonal transport (FIG. 1D), as did perfusion of the MARCKS peptide.

Assay [3] relates to MPP+ effects on fast axonal transport. The assay can be described thus: Isolated axoplasm: blocking of MPP+ effects on fast axonal transport. Particulars: FIG. 5B. Format: cell-based, squid Loligo pealeii. The protocol:
as §2, §1

The test system of assay [4] is phosphorylation of DIC. Briefly: NGF/BDNF (Trk receptor) induced shift of dynein intermediate chain. Format: cell-based. As to conditions: Trk neurotrophin receptors; Gö6976 at 100 nM. From the text:
Specifically, NGF and BDNF binding to Trk neurotrophin receptors caused a shift in the apparent molecular weight of dynein intermediate chain (DIC). To identify the kinase pathway involved in this change, more than 30 different kinase and phosphatase inhibitors were screened.

The subject of assay [5] is α-synuclein mutant Ala30Pro effects on fast axonal transport. The assay can be described thus: Isolated axoplasm: blocking of mutant α-synuclein (Ala30Pro) effects on fast axonal transport. Format: cell-based, squid Loligo pealeii. Particulars: coperfused with α-synuclein mutant Ala30Pro, FIG. 3. The protocol:
as §2
Accordingly, these inhibitors were coperfused with pathological α-synuclein mutant Ala30Pro and fast axonal transport was monitored. […] Similarly, the effects of α-synuclein mutant Ala30Pro could be blocked by a PKCmu peptide substrate (FIG. 3B) and an inhibitor of Src-Family Tyrosine Kinases (PP2) (FIG. 3C).

Assay [6] has as its system DIC phosphorylation. The assay can be described thus: Reelin receptor stimulated DIC phosphorylation. Format: cell-based.
Assay [7] concerns LB filaments (wild-type α-synuclein) effects on fast axonal transport. Briefly: Isolated axoplasm: blocking of LB filament effects on fast axonal transport. Format: cell-based, squid Loligo pealeii. As to conditions: FIG. 4B. The protocol:
as §2
Plasmids containing wild-type α-synuclein; Ala30Pro α-synuclein and Ala53Thr α-synuclein for conventional expression in bacteria were used to generate synuclein protein used in axoplasm and squid giant synapse preparations. […] The ability of LB filaments to affect retrograde axonal transport in isolated axoplasm was evaluated, as were the effects of wild-type LB filaments on kinases.

The test system of assay [8] is Ala30Pro mutant α-synuclein induced failure of neurotransmission. The assay can be described thus: Squid giant synapse: prevention of Ala30Pro α-synuclein induced failure of neurotransmission. The format is cell-based. Particulars: co-injection / coperfusion with Ala30Pro α-synuclein. How it is done:
If they both work by activating PKC and increasing retrograde transport, they might affect availability of synaptic vesicle components in presynaptic terminals. Accordingly, either wild-type α-synuclein, Ala30Pro α-synuclein, or MPP+ were injected into the presynaptic side of the squid giant synapse as described for synaptic vesicles and synapsin (McGuinness, et al. (1989) J. Neurosci. 9:4138-4149; Llinas, et al. (1989) Proc. Nat. Acad. Sci. USA 86:5656-5660). This preparation has been used to evaluate the effects of reagents on presynaptic function by injecting, then stimulating the presynaptic side while recording intracellularly on both pre- and post-synaptic sides (Llinas, et al. (2004) Proc. Natl. Acad. Sci. USA 101:17855-60; Sugimori, et al. (1998) Neuroscience 86:39-51).

Assay [9] deals with T1, PKD (Homo sapiens, UniProt Q15139).
T1 sequence (Q15139 1-912): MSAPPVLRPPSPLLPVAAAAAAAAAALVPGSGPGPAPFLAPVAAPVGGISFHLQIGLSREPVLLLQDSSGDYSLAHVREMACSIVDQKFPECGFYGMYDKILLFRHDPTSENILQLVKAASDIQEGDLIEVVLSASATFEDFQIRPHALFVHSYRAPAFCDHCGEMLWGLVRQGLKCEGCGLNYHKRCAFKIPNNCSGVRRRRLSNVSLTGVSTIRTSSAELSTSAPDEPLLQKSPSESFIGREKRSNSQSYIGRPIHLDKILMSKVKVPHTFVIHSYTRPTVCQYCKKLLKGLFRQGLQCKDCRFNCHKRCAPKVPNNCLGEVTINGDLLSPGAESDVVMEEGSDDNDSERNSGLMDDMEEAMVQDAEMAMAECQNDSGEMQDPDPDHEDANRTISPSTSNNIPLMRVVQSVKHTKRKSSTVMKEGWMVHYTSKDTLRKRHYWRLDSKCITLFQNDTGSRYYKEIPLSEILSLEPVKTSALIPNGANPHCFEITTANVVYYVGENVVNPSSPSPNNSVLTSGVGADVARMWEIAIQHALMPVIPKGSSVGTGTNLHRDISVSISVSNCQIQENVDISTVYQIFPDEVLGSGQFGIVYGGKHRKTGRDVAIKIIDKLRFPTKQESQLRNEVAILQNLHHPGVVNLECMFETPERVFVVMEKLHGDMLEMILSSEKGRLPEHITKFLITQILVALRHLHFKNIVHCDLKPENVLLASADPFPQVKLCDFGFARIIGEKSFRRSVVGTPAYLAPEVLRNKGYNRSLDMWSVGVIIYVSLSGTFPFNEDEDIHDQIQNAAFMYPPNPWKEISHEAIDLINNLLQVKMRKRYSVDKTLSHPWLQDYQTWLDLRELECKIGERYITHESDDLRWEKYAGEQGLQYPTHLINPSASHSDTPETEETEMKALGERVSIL
As to conditions: read-out: PKD autophosphorylation IC50; cited from earlier work.

Assay [10] has as its target T1, PKD. Particulars: read-out: PKD phosphorylation of the exogenous substrate syntide-2 IC50; cited from earlier work.
For assay [11], the system named is cPKC-alpha, cPKC-beta, cPKC-gamma, nPKC-delta and nPKC-epsilon, and aPKC-zeta. Particulars: cited from earlier work.
The test system of assay [12] is fast axonal transport. Briefly: Motility studies in isolated axoplasm: effect of perfused substance on fast axonal transport. Particulars: substance perfused alone into isolated axoplasm. The format is cell-based, squid Loligo pealeii. How it is done: as §2

“Also recorded” adds a separate entry of the source. Where two headings read alike, the source gives them in different places.

As for `Cn1c2ccccc2c2c3c(c4c5ccccc5n(CCC#N)c4c21)CNC3=O` [Gö6976, 5,6,7,13-Tetrahydro-13-methyl-5-oxo-12H-indolo[2,3-a]pyrrolo[3,4-c]carbazole-12-propanenitrile], the “blocking of MPP+ induced increase in DIC phosphorylation” value in assay [1] is recorded as “blocked”. In addition, in assay [2] (100 nM inhibitor, FIG. 1D), the “blocking of Fyn effects on fast axonal transport” value is on record as “blocked”. Moreover, the “blocking of Src/Fyn actions on fast axonal transport” value in assay [2] (concentration not given) is given as “inhibited; also recorded: abolished”. Further, the “blocking of MPP+ effects on fast axonal transport” value in [3] is recorded as “blocked”. The “blocking of NGF/BDNF induced shift (phosphorylation) of DIC” value in assay [4] is reported as “able to block”. Besides, the “blocking of familial Parkinson's disease mutant α-synuclein (Ala30Pro) effects on fast axonal transport” value in assay [5] is “effective at blocking; also recorded: prevented”. Further, the “blocking of Reelin receptor stimulated increase in DIC phosphorylation” value in assay [6] is reported as “blocked”. Further, in assay [7], the “blocking of LB filament (wild-type α-synuclein) effects on fast axonal transport” value is on record as “blocked”. Also, in assay [8], the “prevention of Ala30Pro α-synuclein effect on neurotransmission” value was “prevented”.

Take `CC(C)(C)n1nc(-c2ccc(Cl)cc2)c2c(N)ncnc21` [PP2, 4-amino-5-(4-chlorophenyl)-7-(t-butyl) pyrazolo[3,4-d-]pyrimidine]: the “blocking of MPP+ effects on fast axonal transport” value in [3] was “did not”. Besides, the “blocking of familial Parkinson's disease mutant α-synuclein (Ala30Pro) effects on fast axonal transport” value in assay [5] was “effective at blocking; also recorded: blocked”. Further, the “blocking of LB filament (wild-type α-synuclein) effects on fast axonal transport” value in assay [7] is “blocked”. Further, the “prevention of Ala30Pro α-synuclein effect on neurotransmission” value in assay [8] was “prevented”.

Turning to `Oc1ccc(C=Cc2cc(O)cc(O)c2)cc1` [resveratrol], the half-inhibitory concentration (IC50) is 52 µM in assay [9] and 36 µM in assay [10]. Further, the “effects against the autophosphorylation reactions of PKC isozyme subfamily members” value in assay [11] is “negligible effects”.

Regarding “Fyn: Src-Family nonreceptor tyrosine kinase perfused into axoplasm”, in assay [12], the “effect on fast axonal transport (retrograde RT / anterograde AT), in words” value is “indistinguishable from the effects of PKCs; also recorded: a rapid increase in the amount and rate of retrograde transport accompanied by a slow decline in anterograde transport”.

One may read the IC50 as the concentration that inhibits the measured activity by half.
